“Also recorded” adds a separate entry of the source.
Legend:
HEK293 = test: Cytotoxicity assay HEK293; format: cell-based; details: Homo sapiens, old sample before becoming aware of the decomposition, read-out: %-inh. HEK293
Method: (§1) Due to the nature of the study, some decomposition samples w ere only tested once and thus, for some formal standard error, […]
(§2) For the final purified compounds, replicates were measured and standard deviation was calculated at least from two replicates. […]
(§3) 1.3 General Procedure for Cytotoxicity Assay
(§4) Cytotoxicity assays based on the human lung adenocarcinoma (A549), human embryonic kidney (Hek293) and human hepatocellular carcinoma (HepG2) cell lines were performed as described previously.[7] […]

HepG2 = test: Cytotoxicity assay HepG2; format: cell-based; details: Homo sapiens, old sample before becoming aware of the decomposition, read-out: %-inh. HepG2
Method: as §1, §2, §3, §4

[1] = Decomposition study of stock solutions (HRMS, NMR); format: physicochemical
Method: Firstly, we performed a temperature‐dependent decomposition study of compound 1 at 10 mM concentration in DMSO at room temperature (RT), +4 °C and −20 °C (SI, Section 2.3). After seven days, 64 % of the sample stored at RT had decomposed (SI, Table S1). Besides visual inspection of the colour changes of the test sample (see Table 2), the decomposition was monitored by HRMS and NMR spectroscopy. […] Furthermore, all three samples were tested for their inhibitory activity against PfIspE after the incubation period. […] This fact correlated with the degree of chemical transformation of compound 1 (Table S1). In the IspE assay, the activity of the target enzyme is coupled to the oxidation of NADH (which can be followed spectrophotometrically at 340 nm) via a cascade of the auxiliary enzymes pyruvate kinase and lactate dehydrogenase (PK/LDH).[10] Therefore, we next confirmed, whether the effects observed in the IspE assay are due to inhibition of the target enzyme or of the auxiliary enzymes. Three samples of compound 1 were tested in PK/LDH assay (Table 2).
Secondly, we analysed if spontaneous chemical transformation of compound 1 may depend on the solvent used for the preparation of its stock solutions. We incubated 10 mM stock preparations of compound 1 in DMSO, acetonitrile (ACN) and methanol (MeOH) at RT. Aliquots were taken during 16 days of incubation and tested against the enzyme PfIspE (Table 3). […] For further decomposition incubation of compound 1, only DMSO was used as solvent.
2.3 Temperature-Dependent Study
Compound 1 was dissolved in DMSO to afford 10 mM stock solution, in the scale of 3.65 mg in 1 mL. Three aliquots were prepared and one each was stored inside a light -protecting box at different temperatures: room temperature (RT), +4 °C and –20 °C. Samples were only taken to RT for the minimum time required for sampling. Samples were further d iluted with acetonitrile to 10 µM (1:1000) for HRMS analysis. For calibration, a fresh stock solution of the compound 1 was prepared shortly before the analysis. The concentration range used for the calibration was from 10 µM to 20 nM, including 10 samples with 1:1 dilutions starting from the highest concentration (Appendix I). In all of the calibration points and samples, diphenhydramine ( m/z: 256.16907 [M+H]+) was included as an internal standard at the concentration of 500 nM. The results were analysed using Thermo Xcalibur Quan Browser. Similarly, three NMR samples of compound 1 were prepared in DMSO-d6 and each stored at different temperatures; RT, +4 °C and –20 °C, (Figure S8).
Table S1. Summary of the decomposition of compound 1 at different temperatures with the corresponding enzymatic activities measured after three months.
The Percentage of Compound 1 Left After Degradation after 3 months of decomposition[b] Temperature Day 7 1 month 2 months PfIspE IC50 EcIspE IC50 PK/LDH IC50 […]
[a] [b] Errors given as formal standard error. n.d.: not determined, PK/LDH: pyruvate kinase and lactate dehydrogenase, Pf: Plasmodium falciparum, Ec: Escherichia coli.
Figure S7. The HRMS recorded for the samples submitted to the enzyme assay after 3 months of decomposition with the corresponding colour differences. […]
2.4 Solvent-Dependent Study
As in the Section 2.3, stock solutions of compound 1 were prepared in DMSO, ACN and MeOH and stored at RT for 16 days in a box protected from light . Samples were collected during this time and the enzymatic activity was analysed for them as in main text, Table […]
compound 1 for ACN or MeOH was detectible (Figures S11–12). Similarly, the old samples of compound 1 used for enzyme and cell assays were analysed with HRMS (Figure S13). Additionally, NMR sample in MeOH was prepared and measured over time while stored at RT. As a follow-up experiment, the stability of compound 1 was determined for its 10 mM stock solution in Tris-HCl (pH 7.6) with and without 5% DMSO and Cyrene™ with HRMS (Figure S16–18). […]

## CCn1c(C)cc(-c2csc(Nc3ccccc3C(F)(F)F)n2)c1C [Compound 1]
HEK293
  inhibition at 100 µM: 28%
HepG2
  inhibition at 100 µM: 44%
[1]; 10 mM in DMSO, +4 °C
  Degradation after 2 months: 79%
[1]; 10 mM in DMSO, +4 °C, 1 month
  Percentage of Compound 1 Left After Degradation: 48%
[1]; 10 mM in DMSO, +4 °C, 2 months
  Percentage of Compound 1 Left After Degradation: 21%
[1]; 10 mM in DMSO, +4 °C, Day 7
  Percentage of Compound 1 Left After Degradation: 96%
[1]; 10 mM in DMSO, RT
  Degradation after 2 months: 100%
  decomposition after two weeks (in words): fully decomposed
  share of sample decomposed after seven days: 64%
[1]; 10 mM in DMSO, RT, 1 month
  Percentage of Compound 1 Left After Degradation: 1%
[1]; 10 mM in DMSO, RT, 2 months
  Percentage of Compound 1 Left After Degradation: 0%
[1]; 10 mM in DMSO, RT, Day 7
  Percentage of Compound 1 Left After Degradation: 36%
[1]; 10 mM in DMSO, −20 °C
  Degradation after 2 months: 18%
[1]; 10 mM in DMSO, −20 °C, 1 month
  Percentage of Compound 1 Left After Degradation: 91%
[1]; 10 mM in DMSO, −20 °C, 2 months
  Percentage of Compound 1 Left After Degradation: 82%
[1]; 10 mM in DMSO, −20 °C, Day 7
  Percentage of Compound 1 Left After Degradation: 96%
[1]; 10 mM in DMSO, −20 °C, up to two months
  decomposition at −20 °C (in words): decomposition hardly occurs; also recorded: only minimal decomposition
[1]; 10 mM stock in Cyrene, RT, after one day
  decomposition in Cyrene (HRMS, in words): clear decomposition
[1]; stock solution in ACN at RT for 16 days
  decomposition in ACN (HRMS, in words): no decomposition
[1]; stock solution in MeOH at RT for 16 days
  decomposition in MeOH (HRMS, in words): no decomposition

Source: publication PMC8360061, “Search for the Active Ingredients from a 2‐Aminothiazole DMSO Stock Solution with Antimalarial Activity” (Chemmedchem, 2021)
